According to PMC3136114 (2011):

Tested on: c-Myc duplex (18 bp, d(AGGGTGGGG)2:d(CCCCACCCT)2) (DNA, duplex) AGGGTGGGGAGGGTGGGG/CCCCACCCTCCCCACCCT
Assay: UV absorption titration, Scatchard
Conditions: 137 mM Na+ (NaCl), 5.4 mM K+ (KCl), 1.3 mM Ca2+, 1 mM Mg2+; Hanks' buffer, pH 7.2, 20 °C; single type of site; per site

K1: 0.8 ± 0.1 × 10^6 M^-1
SMILES: O=C1NC(=O)c2c1c1c3ccccc3[nH]c1c1c2c2ccccc2n1[C@@H]1OC[C@H](O)[C@H](O)[C@H]1O
